Measured values taken from patent US10927086B2, “Substituted sulfoximine compounds as indoleamine 2,3-dioxygenase (IDO) inhibitors” (Merck Sharp & Dohme Corp., priority 2017, dated 2021).

Columns and labels:
IDO1 [1] = target: T1, IDO1 (Homo sapiens (Human), UniProt P14902); test: IDO1 Enzyme Assay; type: biochemical; conditions: HIS-tagged recombinant IDO1, fluorescence readout
Protocol: (§1) Compounds to be tested were serially diluted in ten 3-fold steps in DMSO starting from 10 mM DMSO stocks. Compound dilutions or DMSO alone were then dispensed from the dilution plate into a Greiner black 384-well assay plate (catalog #781086) using an Echo 555 acoustic liquid handler (Labcyte).
HIS-tagged IDO1 protein was recombinantly expressed in Escherichia coli using ZYP5052 autoinduction media supplemented with 500 μM delta aminolevulinic acid for 48 h at 16° C. IDO1 protein was purified using Ni^2+-affinity resin and size exclusion chromatography. Purified protein was then diluted in assay buffer (50 mM Tris pH 7.0, 1% glycerol, 20 μM methylene blue, 0.05% Tween-20, 20 mM sodium ascorbate, 100 units/mL catalase to obtain a final IDO1 concentration of 40 nM. IDO1 solution […] or buffer alone ([…]) were dispensed to wells of the assay plate using a BioRAPTR liquid dispenser (Beckman Coulter). Assay plates containing compound and IDO1 enzyme were incubated at RT for 30 min. Afterwards, 10 μL of 400 μM tryptophan in assay buffer were added to each well of the assay plate using a BioRAPTR liquid dispenser. Plates were incubated at RT for 60 min and reactions were quenched by addition of 10 μL of 0.5 M methyl isonipecotate in dimethyl sulfoxide. Plates were sealed and incubated at 37° C. for 4 h or 50° C. for 2 h. The plates are allowed to cool and then centrifuged for 1 min at 1000×g. The resulting fluoresence was measured in an Envision plate reader (Perkin Elmer) with a 400/25 nm excitation filter and an 510/20 nm emission filter.
Potencies were calculated by linear least squares fit to the four parameter logistic IC50 equation.
Target sequence in this assay (P14902 whole entry, species assumed): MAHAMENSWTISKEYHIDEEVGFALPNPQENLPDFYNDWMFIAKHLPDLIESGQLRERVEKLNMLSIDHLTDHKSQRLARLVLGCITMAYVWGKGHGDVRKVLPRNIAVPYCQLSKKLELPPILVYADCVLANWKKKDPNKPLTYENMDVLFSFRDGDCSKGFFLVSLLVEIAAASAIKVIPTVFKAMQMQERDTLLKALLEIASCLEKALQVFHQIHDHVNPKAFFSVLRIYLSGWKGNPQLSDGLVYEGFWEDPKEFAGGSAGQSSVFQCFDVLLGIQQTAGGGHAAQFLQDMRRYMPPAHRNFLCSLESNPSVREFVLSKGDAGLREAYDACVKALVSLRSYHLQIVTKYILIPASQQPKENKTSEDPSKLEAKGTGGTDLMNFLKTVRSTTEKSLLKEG

IDO1 [2] = target: T1, IDO1; test: IDO1 Cellular Assay in Hela Cells Stimulated with IFNγ; type: cell-based; conditions: about 48 hours, read-out: IDO1 HELA Cell Assay, IC50
Protocol: Hela cells were cultured in complete Hela culture medium (90% EMEM, 10% heat-inactivated fetal bovine serum) and expanded to about 1×10^9 cells. The cells were then collected and frozen down at 10×10^6 cells/vial in 1 mL frozen medium (90% complete Hela culture medium, 10% DMSO)
as §1, with “stocks in Echo low volume plate(s).” for “stocks.”, “plate(s)” for “plate”, “into” for “into a”, “#781086, 50 nL/well)” for “#781086)”, “550” for “555”
Target sequence in this assay (P14902 whole entry): as the sequence (P14902 whole entry, species assumed) above
Frozen Hela cells were thawed and transferred into Hela assay medium (99% complete Hela culture medium, 1% Pen/Strep) with 20 mL medium/vial of cells. The cells were spun down at 250 g in a table top centrifuge for 5 min and suspended in same volume of Hela assay medium. The cells were then counted and adjusted to a density of 2×10^5 cells/ml in Hela assay medium. Sterile L-tryptophan were added to the cells with final concentration of 300 uM L-tryptophan. A small aliquot (2 mL/plate) of Hela cells were set aside and were not treated with IFNγ, to serve as the Max-E control. The rest of Hela cells were added with sterile IFNγ (Cat #285-IF, R & D systems) with a final concentration of 100 ng/mL.
Hela cells with and without IFNγ were dispensed to the respective wells of 384-well assay plates containing the compounds. The plates were incubated for about 48 hours at a 37° C., 5% CO2 incubator. Afterwards, 12 μL of 0.5 M methyl isonipecotate in dimethyl sulfoxide were added into each well and the plates were sealed and incubated at 37° C. without CO2 overnight. The plates were centrifuged for 1 min at 200×g. The resulting fluorescence was measured in a Spectramax plate reader (Molecular Devices) with a 400 nm excitation filter and a 510 nm emission filter.
The fluorescence intensity of each well was corrected for the background observed in wells with non-IFNγ-treated cells and was expressed as a fraction of the intensity observed in wells of IFNγ-treated cells and DMSO only. Potencies were calculated by linear least squares fit to the four parameter logistic IC50 equation.

IDO1 [3] = target: T1, IDO1; test: IDO1 Human Whole Blood Assay; type: cell-based; conditions: LPS and IFNγ, 18 h, kynurenine by LC/MS/MS
Protocol: Compounds to be tested were serially diluted in ten 3-fold steps in DMSO starting from 10 mM. 3 μL of compound dilutions or DMSO alone were then dispensed from the dilution plate into a polypropylene 96-well assay plate containing 97 μL of RPMI using an Echo 555 acoustic liquid handler (Labcyte). LPS and IFNγ was prepared in RPMI to a 10λ of final conc. (1000 ng/mL), final concentration is 100 ng/mL.
Human whole blood was drawn in sodium heparin coated tubes from healthy internal donors. Two hundred forty μL of blood was transferred to each of the wells of a v-bottom 96 well plate. Thirty μL of compound was transferred from intermediate dilution plate, and incubated for 15 min. […] from stimulants was then transferred to blood and mixed thoroughly. Plate was covered with breathable membrane and incubated at 37° C. for overnight (18 h).
On day 2 isotope labeled standard of kynurenine and tryptophan was made in water at 10× concentration and 30 μL was added to the blood at 3 μM final concentration. The assay plates were centrifuged at 300×G for 10 min with no brake to separate plasma from red blood cells. Sixty μL of plasma samples was removed without disturbing red blood cells.
Plasma was diluted with RPMI in 1:1 ratio and proteins were precipitated out with two volume of Acetonitrile. The plates was centrifuged at 4000×G for 60 min. Twenty μL of supernatant was carefully transferred to a 384 well plate contain 40 μL of 0.1% formic acid in water and analyzed by LC/MS/MS.
LC/MS/MS analyses were performed using Thermo Fisher's LX4-TSQ Quantum Ultra system. This system consists of four Agilent binary high-performance liquid chromatography (HPLC) pumps and a TSQ Quantum Ultra triple quadruple MS/MS instrument. For each sample, 5 μL were injected onto an Atlantis T3 column (2.1 mm×150 mm, 3 μm particle size) from Waters. The mobile phase gradient pumped at 0.8 mL/min was used to elute the analytes from the column at 25° C. The elution started at 0% B increasing linearly to 25% B at 6.5 min, holding at 25% for 1 min, re-equilibrating to 10 min. Mobile phase A consisted of 0.1% formic acid in water. Mobile phase B consisted of 0.1% of formic acid in acetonitrile. Data was acquired in positive mode using a HESI interface. The operational parameters for the TSQ Quantum Ultra instrument were a spray voltage of 4000 V, capillary temperature of 380° C., vaporizer temperature 400° C., shealth gas 60 arbitrary units, Aux gas 20 arbitrary units, tube lens 85 and collision gas 1.2 mTorr. SRM chromatograms of kynurenine (QI: 209.2>Q3:94.0) and internal standard (Q1: 215.3>Q3:98.2) were collected for 90 sec. The peak area was integrated by Xcalibur Quan software. The ratios between the kynurenine generated in the reaction and 2D6-Kynurenine spiked-in internal standard were used to generate percentage inhibition and IC50 values. Compounds were titrated and IC50's were calculated by 4 parameter sigmoidal curve fitting formula.
Target sequence in this assay (P14902 whole entry): as the sequence (P14902 whole entry, species assumed) above

Structure (SMILES)	IC50 (IDO1 [1]) [nM]	IC50 (IDO1 [2]) [nM]	IC50 (IDO1 [3]) [nM]
N=S1(=O)CC(Nc2nonc2/C(=N/O)N[C@H]2Cc3ccc(F)cc32)C1 (single isomer, unassigned) [Example 3]	120	110	1800
N=S1(=O)CC(Nc2nonc2/C(=N/O)N[C@H]2Cc3ccc(F)cc32)C1 (single isomer, unassigned) [Example 4]	90.6	162	1890
N=S1(=O)CC(CNc2nonc2/C(=N/O)N[C@H]2Cc3ccc(F)cc32)C1 (single isomer, unassigned) [Example 5]	102	168	412
N=S1(=O)CC(CNc2nonc2/C(=N/O)N[C@H]2Cc3ccc(F)cc32)C1 (single isomer, unassigned) [Example 6]	51	92.1	494
CS(=N)(=O)N1CC(O)(CNc2nonc2/C(=N/O)N[C@H]2Cc3ccc(F)cc32)C1 (single isomer, unassigned) [Example 36]	85.7	148	1640
CS(=N)(=O)N1CC(Oc2nonc2/C(=N/O)N[C@H]2Cc3ccc(F)cc32)C1 (single isomer, unassigned) [Example 41]	94	117	224
CS(=N)(=O)N1CCO[C@@H](CNc2nonc2/C(=N\O)N[C@@H]2Cc3ccc(F)cc32)C1 (single isomer, unassigned) [Example 63]	98	73	1200
CS(=N)(=O)CC12CC(Nc3nonc3/C(=N\O)N[C@@H]3Cc4ccc(F)cc43)(C1)C2 (single isomer, unassigned) [Example 83]	81.5	83.9	–
CC(O)CS(=N)(=O)CCNc1nonc1/C(=N\O)N[C@@H]1Cc2ccc(F)cc21 (single isomer, unassigned) [Example 84]	56.8	55.2	–
CC(O)CS(=N)(=O)CCNc1nonc1/C(=N\O)N[C@@H]1Cc2ccc(F)cc21 (single isomer, unassigned) [Example 85]	49.5	49.7	–
CC(O)CS(=N)(=O)CCNc1nonc1/C(=N\O)N[C@@H]1Cc2ccc(F)cc21 (single isomer, unassigned) [Example 86]	47.4	40.5	–
CC(O)CS(=N)(=O)CCNc1nonc1/C(=N\O)N[C@@H]1Cc2ccc(F)cc21 (single isomer, unassigned) [Example 87]	46.1	51.9	–
CON=[S@](C)(=O)CCNc1nonc1/C(=N/O)NC1Cc2ccc(F)cc21 (single isomer, unassigned) [Example 90]	44.9	53.5	–
CON=[S@](C)(=O)CCNc1nonc1/C(=N/O)NC1Cc2ccc(F)cc21 (single isomer, unassigned) [Example 91]	47.2	41.8	–
N=S(N)(=O)CCCNc1nonc1/C(=N\O)NC1Cc2ccc(F)cc21 (stereo in doubt) [Example 65, 4-{[3-(S-aminosulfonimidoyl)propyl]amino}-N-[(7S)-4-fluorobicyclo[4.2.0]octa-1,3,5-trien-7-yl]-N′-hydroxy-1,2,5-oxadiazole-3-carboximidamide]	48.2	25.7	–
C[S@](=N)(=O)CCNc1nonc1/C(=N/O)N[C@H]1Cc2ccc(F)cc21 [Example 1, N—((S)-4-fluorobicyclo[4.2.0]octa-1(6),2,4-trien-7-yl)-N′-hydroxy-4-((2-((S)—S-methylsulfonimidoyl)ethyl)amino)-1,2,5-oxadiazole-3-carboximidamide]	86	55.8	427
CS(=N)(=O)NCCNc1nonc1/C(=N/O)N[C@H]1Cc2ccc(F)cc21 (stereo partly drawn) [Example 11, N—((S)-4-fluorobicyclo[4.2.0]octa-1(6),2,4-trien-7-yl)-N′-hydroxy-4-((2-(methylsulfonoamidimidamido)ethyl)amino)-1,2,5-oxadiazole-3-carboximidamide]	38.7	27.4	–
CS(=N)(=O)CCNC(=O)CNc1nonc1/C(=N/O)N[C@H]1Cc2ccc(F)cc21 (stereo partly drawn) [Example 12, 2-((4-(N-((S)-4-fluorobicyclo[4.2.0]octa-1(6),2,4-trien-7-yl)-N′-hydroxycarbamimidoyl)-1,2,5-oxadiazol-3-yl)amino)-N-(2-(S-methylsulfonimidoyl)ethyl)acetamide]	49.3	114	–
CN=S(C)(=O)CCNC(=O)CNc1nonc1/C(=N/O)N[C@H]1Cc2ccc(F)cc21 (stereo partly drawn) [Example 40, N-[2-(N,S-dimethylsulfonimidoyl)ethyl]-N~2~-(4-{N-[(7S)-4-fluorobicyclo[4.2.0]octa-1,3,5-trien-7-yl]-N′-hydroxycarbamimidoyl}-1,2,5-oxadiazol-3-yl)glycinamide]	237	201	–
CS(=N)(=O)NCCCCNc1nonc1/C(=N/O)N[C@H]1Cc2ccc(F)cc21 (stereo partly drawn) [Example 53, N-[(7S)-4-fluorobicyclo[4.2.0]octa-1,3,5-trien-7-yl]-N′-hydroxy-4-({4-[(S-methylsulfonimidoyl)amino]butyl}amino)-1,2,5-oxadiazole-3-carboximidamide]	69.4	45.1	–
CN(CCNc1nonc1/C(=N\O)N[C@H]1Cc2ccc(F)cc21)S(C)(=N)=O (stereo partly drawn) [Example 54, N-[(7S)-4-fluorobicyclo[4.2.0]octa-1,3,5-trien-7-yl]-N′-hydroxy-4-({2-[methyl(S-methylsulfonimidoyl)amino]ethyl}amino)-1,2,5-oxadiazole-3-carboximidamide]	108	102	–
